In patent US6344179B1, “Fluoralkenyl nortropanes” (Emory University, priority 1999, dated 2002):
Where “and” joins values, the source holds several entries; their conditions need not be identical. Identical values can stand only once. Entries after “also recorded” stand apart in the source; their conditions may differ. Like-named read-outs stand apart in the source and are kept apart here.

Key:
[1] = target: T1, norepinephrine transporter (Homo sapiens, UniProt P23975); test: Competitive binding in transfected cell lines, [3H]Nisoxetine
T1 construct: expressed in transfected cells

human SERT = target: T2, human SERT (Homo sapiens, UniProt P31645); test: Competitive binding in transfected cell lines, [3H]Citalopram
T2 construct: expressed in transfected cells

human DAT = target: T3, human DAT (Homo sapiens, UniProt Q01959); test: Competitive binding in transfected cell lines, [3H]WIN 35428
T3 construct: expressed in transfected cells

rat brain DAT [2] = target: T4, rat brain DAT (Rattus norvegicus, UniProt P23977); test: In vivo selectivity: block with monoamine transporter ligands before [18F]FBCINT in rats; conditions: 60 minutes
T4 construct: from tissue; host or cells: brain of living male Sprague Dawley rats (striatum, cortex, cerebellum dissected)
Description: FBCINT. The rats were sacrificed 60 minutes after injection of [^18F] FBCINT and the striatum, cortex, prefrontal cortex, olfactory tubercles and cerebellum were dissected and the uptake of radioactivity determined. The monoamine transporter ligands administered were RTI-113 (DAT), paroxetine (SERT) and reboxetine (NET). […] FBCINT in the DAT transporter rich striatum and olfactory tubercles. […] FBCINT.

rat brain DAT [3] = target: T4, rat brain DAT; test: In vivo specificity: RTI-113 block before the 18F ligand in rats; conditions: for effect of RTI-113 on uptake in the striatum: RTI-113 5 mg/kg i.v. 15 minutes prior, 60 minutes
Description: To determine the in vivo specificity of FBNT analogs [^18F] […] 6a, 6d and 6e. The rats were sacrificed 60 minutes after injection of [^18F] […] 6a, 6d and 6e, in the DAT transporter rich striatum.

[4] = PET brain imaging in a rhesus monkey; type: in vivo
Description: The regional distribution of E-[^18F] […] Dynamic emission data were acquired using a 35 frame acquisition protocol which included twelve 30 second scans, six one minute scans, six 3 minute scans, five 10 minute scans and six 20 minute scans.

[5] = Stability to metabolism and in vivo loss of fluorine-18
striatal DAT [6] = test: Chase (displacement) study with β-CIT, PET in rhesus monkey; type: in vivo; conditions: for displacement from striatum by β-CIT: PET
Description: A chase study with E-[^18F] FBCINT and β-CIT, a DAT ligand, was also performed in the same rhesus monkey. At 195 minutes p.i. 3.0 mg (0.9 μmol/kg) of β-CIT, was administered intravenously and dynamic imaging was continued for an additional 40 minutes (eight 5 minute scans). […] The displacement of E-[^18F] […] The regional distribution and kinetic behavior of E-[^18F] […] FBFNT (6e) were next compared in the brain of awake rhesus monkeys.

striatal DAT [7] = test: PET imaging in awake rhesus monkeys; type: in vivo, rhesus monkey
Description: The regional kinetics of [^18F] […] Both [^18F] […] [^18F] […] The peak uptake ratio of striatumwcerebellum was 4:1 at 20 minutes for [^18F] […] 6d. The in vivo ratio of [1^18F] […] FECNT, 5:1. [^18F]

[8] = In vivo regional brain tissue distribution of 18F-labeled ligands in rats; set-up: species or system Sprague Dawley rats; conditions: rat; for Regional uptake of radioactivity, Cerebellum / Regional uptake of radioactivity, Cortex (Cx) / Regional uptake of radioactivity, Striatum / Uptake of radioactivity, Blood / Uptake of radioactivity, Bone / Uptake of radioactivity, Brain: i.v., 18F-labeled
Source text: The in vivo regional brain tissue distribution of [^18F]

[9] = 60 min, 5 mg/kg RTI-113 i.v. 15 minutes prior
[10] = at 120 minutes compared to 5 minutes post injection

T4 sequence (P23977 whole entry): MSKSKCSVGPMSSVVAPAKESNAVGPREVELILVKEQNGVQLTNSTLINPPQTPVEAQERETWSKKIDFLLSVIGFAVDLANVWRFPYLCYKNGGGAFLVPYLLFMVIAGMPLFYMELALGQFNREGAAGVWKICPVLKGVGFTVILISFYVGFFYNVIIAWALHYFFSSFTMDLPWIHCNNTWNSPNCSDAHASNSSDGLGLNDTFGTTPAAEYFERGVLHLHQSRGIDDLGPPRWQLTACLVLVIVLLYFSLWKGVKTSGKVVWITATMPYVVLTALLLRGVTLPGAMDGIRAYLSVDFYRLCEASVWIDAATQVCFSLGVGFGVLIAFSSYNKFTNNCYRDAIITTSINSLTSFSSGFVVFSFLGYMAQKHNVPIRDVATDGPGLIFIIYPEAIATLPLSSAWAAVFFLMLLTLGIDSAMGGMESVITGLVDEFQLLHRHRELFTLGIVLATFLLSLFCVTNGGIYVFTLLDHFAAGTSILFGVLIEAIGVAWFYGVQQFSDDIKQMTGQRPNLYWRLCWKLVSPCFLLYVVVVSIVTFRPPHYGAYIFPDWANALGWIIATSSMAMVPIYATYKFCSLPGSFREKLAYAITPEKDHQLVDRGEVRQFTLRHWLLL
T3 sequence (Q01959 whole entry): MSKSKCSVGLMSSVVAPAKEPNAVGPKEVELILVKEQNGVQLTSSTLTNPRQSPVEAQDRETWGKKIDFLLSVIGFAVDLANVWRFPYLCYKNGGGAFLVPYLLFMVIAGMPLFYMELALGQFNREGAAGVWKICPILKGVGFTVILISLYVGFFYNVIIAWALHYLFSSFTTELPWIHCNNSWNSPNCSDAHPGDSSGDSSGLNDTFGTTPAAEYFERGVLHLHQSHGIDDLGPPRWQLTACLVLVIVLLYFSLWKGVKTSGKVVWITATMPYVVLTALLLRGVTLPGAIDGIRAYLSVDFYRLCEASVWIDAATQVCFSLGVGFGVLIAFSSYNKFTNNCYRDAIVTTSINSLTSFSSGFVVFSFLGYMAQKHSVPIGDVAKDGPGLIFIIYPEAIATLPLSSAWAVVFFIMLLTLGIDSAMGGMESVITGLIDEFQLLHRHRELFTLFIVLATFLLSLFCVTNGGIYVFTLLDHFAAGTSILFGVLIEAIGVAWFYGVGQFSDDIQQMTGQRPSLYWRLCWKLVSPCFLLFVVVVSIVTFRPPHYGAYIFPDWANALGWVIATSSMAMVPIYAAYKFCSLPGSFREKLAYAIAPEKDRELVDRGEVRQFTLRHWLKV
T2 sequence (P31645 whole entry): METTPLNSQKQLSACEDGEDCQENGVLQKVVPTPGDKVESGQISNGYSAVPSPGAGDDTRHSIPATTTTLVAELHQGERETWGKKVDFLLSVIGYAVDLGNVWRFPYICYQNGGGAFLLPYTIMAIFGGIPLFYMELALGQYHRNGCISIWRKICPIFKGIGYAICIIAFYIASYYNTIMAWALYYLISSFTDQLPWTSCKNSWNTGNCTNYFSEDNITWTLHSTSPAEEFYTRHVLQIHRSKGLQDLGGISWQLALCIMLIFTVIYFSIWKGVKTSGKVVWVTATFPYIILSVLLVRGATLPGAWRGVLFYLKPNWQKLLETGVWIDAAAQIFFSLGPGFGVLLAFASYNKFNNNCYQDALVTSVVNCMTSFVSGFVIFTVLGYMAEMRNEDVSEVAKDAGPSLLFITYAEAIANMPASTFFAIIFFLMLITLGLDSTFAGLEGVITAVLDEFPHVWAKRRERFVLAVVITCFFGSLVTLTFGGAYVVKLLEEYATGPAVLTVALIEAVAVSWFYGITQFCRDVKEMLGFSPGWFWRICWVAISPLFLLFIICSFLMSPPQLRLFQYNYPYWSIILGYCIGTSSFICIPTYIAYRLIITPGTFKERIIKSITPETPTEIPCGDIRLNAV
T1 sequence (P23975 whole entry): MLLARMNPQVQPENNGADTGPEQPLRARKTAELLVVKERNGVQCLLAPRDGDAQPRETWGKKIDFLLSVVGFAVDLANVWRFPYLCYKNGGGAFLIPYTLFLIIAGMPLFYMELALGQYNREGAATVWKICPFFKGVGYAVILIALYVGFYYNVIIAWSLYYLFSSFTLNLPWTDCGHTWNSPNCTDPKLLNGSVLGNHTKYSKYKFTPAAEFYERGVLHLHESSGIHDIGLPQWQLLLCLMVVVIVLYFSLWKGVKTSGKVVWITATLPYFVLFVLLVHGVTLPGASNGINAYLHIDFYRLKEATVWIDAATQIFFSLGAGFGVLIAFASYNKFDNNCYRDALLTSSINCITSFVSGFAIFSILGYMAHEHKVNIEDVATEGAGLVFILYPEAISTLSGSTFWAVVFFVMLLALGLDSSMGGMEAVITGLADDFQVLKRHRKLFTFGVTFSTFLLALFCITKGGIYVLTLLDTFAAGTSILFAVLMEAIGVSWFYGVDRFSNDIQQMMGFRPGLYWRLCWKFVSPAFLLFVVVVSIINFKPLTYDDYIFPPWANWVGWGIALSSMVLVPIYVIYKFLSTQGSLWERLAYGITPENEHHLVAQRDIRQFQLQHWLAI

COC(=O)[C@H]1[C@@H](c2ccc(Br)cc2)C[C@@H]2CC[C@H]1N2C/C=C/CF [6b, N-((E)-4-=fluorobut-2-en-1-yl)-2β-carbomethoxy-3β-4-(4-bromophenyl)nortropane]
Ki [1]: 91 nM | Ki (human SERT): 0.85 nM

COC(=O)[C@H]1[C@@H](c2ccc(I)cc2)C[C@@H]2CC[C@H]1N2C/C=C/CF [6c, N-((E)-4-fluorobut-2-en-1-yl)-2β-carbomethoxy-3β-(4-iodophenyl)nortropane]
Ki (human SERT): 0.21 nM | Ki (human DAT): 0.17 nM

COC(=O)C1C(c2ccc(Cl)cc2)CC2CCC1N2C/C=C/CF (stereo not drawn) [6d, N-((E)-4-fluorobut-2-en-1-yl)-2β-carbomethoxy-3β-(4-chlorophenyl)nortropane]
effect of GBR 12909 on uptake in striatum and olfactory tubercles (rat brain DAT [2]; 5 mg/kg i.v. 15 minutes prior): significantly blocked | effect of SERT and NET blocking agents on regional brain uptake (rat brain DAT [2]; 5 mg/kg i.v. 15 minutes prior): no effect | Regional uptake, Cerebellum (rat brain DAT [2]; GBR 12909 5 mg/kg i.v.): 0.15 % dose/g | Regional uptake, Cortex (CX) (dry tissue) (rat brain DAT [2]; GBR 12909 5 mg/kg i.v.): 0.69 % dose/g | Regional uptake, Olfactory Tubercle (dry tissue) (rat brain DAT [2]; GBR 12909 5 mg/kg i.v.): 1.07 % dose/g | Regional uptake, Prefrontal Cx (dry tissue) (rat brain DAT [2]; GBR 12909 5 mg/kg i.v.): 1.02 % dose/g | Regional uptake, Striatum (dry tissue) (rat brain DAT [2]; GBR 12909 5 mg/kg i.v.): 1.51 % dose/g | Regional uptake, Cerebellum (rat brain DAT [2]; No Block): 0.13 % dose/g | Regional uptake, Cortex (CX) (dry tissue) (rat brain DAT [2]; No Block): 0.53 % dose/g | Regional uptake, Olfactory Tubercle (dry tissue) (rat brain DAT [2]; No Block): 5.26 % dose/g | Regional uptake, Prefrontal Cx (dry tissue) (rat brain DAT [2]; No Block): 0.74 % dose/g | Regional uptake, Striatum (dry tissue) (rat brain DAT [2]; No Block): 6.96 % dose/g | Regional uptake, Cerebellum (rat brain DAT [2]; Paroxetine 5 mg/kg i.v.): 0.10 % dose/g | Regional uptake, Cortex (CX) (dry tissue) (rat brain DAT [2]; Paroxetine 5 mg/kg i.v.): 0.46 % dose/g | Regional uptake, Olfactory Tubercle (dry tissue) (rat brain DAT [2]; Paroxetine 5 mg/kg i.v.): 5.06 % dose/g | Regional uptake, Prefrontal Cx (dry tissue) (rat brain DAT [2]; Paroxetine 5 mg/kg i.v.): 0.67 % dose/g | Regional uptake, Striatum (dry tissue) (rat brain DAT [2]; Paroxetine 5 mg/kg i.v.): 4.47 % dose/g | Regional uptake, Cerebellum (rat brain DAT [2]; Reboxetine 5 mg/kg i.v.): 0.12 % dose/g | Regional uptake, Cortex (CX) (dry tissue) (rat brain DAT [2]; Reboxetine 5 mg/kg i.v.): 0.41 % dose/g | Regional uptake, Olfactory Tubercle (dry tissue) (rat brain DAT [2]; Reboxetine 5 mg/kg i.v.): 5.74 % dose/g | Regional uptake, Prefrontal Cx (dry tissue) (rat brain DAT [2]; Reboxetine 5 mg/kg i.v.): 0.77 % dose/g | Regional uptake, Striatum (dry tissue) (rat brain DAT [2]; Reboxetine 5 mg/kg i.v.): 6.64 % dose/g | Regional uptake of radioactivity, Cerebellum (rat brain DAT [3]; [9]): 0.12 % dose/g | Regional uptake of radioactivity, Cortex (Cx) (rat brain DAT [3]; [9]): 0.14 % dose/g | Regional uptake of radioactivity, Striatum (rat brain DAT [3]; [9]): 0.15 % dose/g | Uptake of radioactivity, Blood (rat brain DAT [3]; [9]): 0.12 % dose/g | Uptake of radioactivity, Brain (rat brain DAT [3]; [9]): 0.12 % dose/g | effect of RTI-113 on uptake in the striatum (rat brain DAT [3]): significantly blocked | striatum (S) uptake by PET ([4]; 180-210 min): 2.7 μCi/mL | striatum uptake ([4]; PET): high striatum uptake; also recorded: region of highest uptake in the brain | stability to metabolism and in vivo loss of fluorine-18 [5]: stable to metabolism and in vivo loss of the fluorine-18 radioisotope | displacement from striatum by β-CIT (striatal DAT [6]): striatal washout; also recorded: significant reduction of activity in the striatum | displacement from striatum by β-CIT (striatal DAT [6]; listed as FBCINT): exhibited reversibility | washout half-time on displacement by β-CIT (striatal DAT [6]; β-CIT 0.9 μmol/kg i.v. at 195 minutes p.i.): 21 min | striatal washout / time course of uptake (striatal DAT [7]; awake rhesus monkey, decay corrected): very little if any washout; also recorded: appears constant at 115 minutes post injection | initial uptake in striatum and cerebellum (striatal DAT [7]; awake rhesus monkeys): high initial uptake in the striatum and very little uptake in the cerebellum | clearance from striatal tissue [8, 10]: 50% | Regional uptake of radioactivity, Cerebellum ([8]; 5 min): 0.52 % dose/g | Regional uptake of radioactivity, Cortex (Cx) ([8]; 5 min): 0.76 % dose/g | Regional uptake of radioactivity, Striatum ([8]; 5 min): 1.33 % dose/g | Uptake of radioactivity, Blood ([8]; 5 min): 0.14 % dose/g | Uptake of radioactivity, Bone ([8]; 5 min): 0.30 % dose/g | Uptake of radioactivity, Brain ([8]; 5 min): 0.66 % dose/g | Regional uptake of radioactivity, Cerebellum ([8]; 30 min): 0.19 % dose/g | Regional uptake of radioactivity, Cortex (Cx) ([8]; 30 min): 0.40 % dose/g | Regional uptake of radioactivity, Striatum ([8]; 30 min): 1.31 % dose/g | Uptake of radioactivity, Blood ([8]; 30 min): 0.16 % dose/g | Uptake of radioactivity, Bone ([8]; 30 min): 0.80 % dose/g | Uptake of radioactivity, Brain ([8]; 30 min): 0.29 % dose/g | Regional uptake of radioactivity, Cerebellum ([8]; 60 min): 0.10 % dose/g | Regional uptake of radioactivity, Cortex (Cx) ([8]; 60 min): 0.13 % dose/g | Regional uptake of radioactivity, Striatum ([8]; 60 min): 0.61 % dose/g | Uptake of radioactivity, Blood ([8]; 60 min): 0.10 % dose/g | Uptake of radioactivity, Bone ([8]; 60 min): 1.35 % dose/g | Uptake of radioactivity, Brain ([8]; 60 min): 0.14 % dose/g | Regional uptake of radioactivity, Cerebellum ([8]; 120 min): 0.13 % dose/g | Regional uptake of radioactivity, Cortex (Cx) ([8]; 120 min): 0.24 % dose/g | Regional uptake of radioactivity, Striatum ([8]; 120 min): 0.69 % dose/g | Uptake of radioactivity, Blood ([8]; 120 min): 0.13 % dose/g | Uptake of radioactivity, Bone ([8]; 120 min): 1.9 % dose/g | Uptake of radioactivity, Brain ([8]; 120 min): 0.17 % dose/g | Regional uptake of radioactivity, Striatum ([8]; 120 min, listed as [F-18]FBCINT): 2.5 % dose/g

COC(=O)[C@H]1[C@@H](c2ccc(F)cc2)C[C@@H]2CC[C@H]1N2C/C=C/CF [6e, N-((E)-4-fluorobut-2-en-1-yl)-2β-carbomethoxy-3β-(4-fluorophenyl)nortropane]
effect of RTI-113 on uptake in the striatum (rat brain DAT [3]): significantly blocked | Ki (human DAT; [3H]WIN 35428 as reference, cells transfected with human DAT, read-out: DAT, Ki): 1.7 nM | time at which transient equilibrium in the striatum was reached (striatal DAT [7]; awake rhesus monkey, post injection): 30 min and 20 min | early transient equilibrium at the striatal DAT (striatal DAT [7]; awake rhesus monkeys, PET): achieved an early transient equilibrium | clearance from striatal tissue ([8]; at 60 minutes compared to 5 minutes post injection): 70% | clearance from striatal tissue [8, 10]: 85%
